Assay results as given in patent US10941157B2, “Pesticidal compositions and uses thereof” (Gilead Apollo, LLC, priority 2015, dated 2021).
Values after ≈ are worked out from the molar mass of the structure shown. Read-outs that look alike come from different tables or passages of the source.

Columns and labels:
Type in all cases: cell-based
[1] = system: Phytophthora capsici (Pc); assay: In vitro pathogen growth inhibition assay, Pc; settings: 48 h
Procedure, shortened: (§1)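 Value reported is the compound concentration reaching ≥90% growth inhibition, from OD readings at 24 and 48 h after blank subtraction, confirmed visually. Inoculum was spores diluted in 17% V8 medium, except Rs, using 1.5 mm mycelial plugs in ¼ PDB; actual compound concentration corrected via OD600.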

Rhizoctonia solani (Rs) = assay: In vitro pathogen growth inhibition assay, Rs (mycelial plugs); settings: Rhizoctonia solani, 48 h
Procedure, shortened: as §1

Botrtyis cinerea (Bc) = assay: In vitro pathogen growth inhibition assay, Bc; settings: 48 h
Procedure, shortened: as §1

[2] = system: Collectotrichum graminicola (Cg); assay: In vitro pathogen growth inhibition assay, Cg; settings: 48 h
Procedure, shortened: as §1

[3] = system: Fusarium virguliforme (Fv); assay: In vitro pathogen growth inhibition assay, Fv
Procedure, shortened: as §1

Diplodia maydis (Dm) = assay: In vitro pathogen growth inhibition assay, Dm; settings: Stenocarpella maydis, 48 h
Procedure, shortened: as §1

[4] = system: Fusarium moniliforme (Fm); assay: In vitro pathogen growth inhibition assay, Fm; settings: Fusarium verticillioides
Procedure, shortened: as §1

Septoria tritici (St) = assay: In vitro pathogen growth inhibition assay, St; settings: Zymoseptoria tritici, 48 h
Procedure, shortened: as §1

[5] = ≥90% growth inhibition, 48 hours, vs 2% DMSO control, read-out: Compound Concentration (ppm) sufficient for ≥90% inhibition of Pc
[6] = ≥90% growth inhibition, mycelial plugs, 48 hours, vs 2% DMSO control, read-out: Compound Concentration (ppm) sufficient for ≥90% inhibition of Rs
[7] = ≥90% growth inhibition, 48 hours, vs 2% DMSO control, read-out: Compound Concentration (ppm) sufficient for ≥90% inhibition of Bc
[8] = ≥90% growth inhibition, 48 hours, vs 2% DMSO control, read-out: Compound Concentration (ppm) sufficient for ≥90% inhibition of Cg
[9] = ≥90% growth inhibition, 48 hours, vs 2% DMSO control, read-out: Compound Concentration (ppm) sufficient for ≥90% inhibition of Fv
[10] = ≥90% growth inhibition, 48 hours, vs 2% DMSO control, read-out: Compound Concentration (ppm) sufficient for ≥90% inhibition of Dm
[11] = ≥90% growth inhibition, 48 hours, vs 2% DMSO control, read-out: Compound Concentration (ppm) sufficient for ≥90% inhibition of Fm
[12] = ≥90% growth inhibition, 48 hours, vs 2% DMSO control, read-out: Compound Concentration (ppm) sufficient for ≥90% inhibition of St
[13] = concentration sufficient to ≥90% inhibition of growth, 48 hours vs 2% DMSO control, read-out: Compound Concentration (ppm) for ≥90% inhibition, Pc
[14] = concentration sufficient to ≥90% inhibition of growth, 48 hours vs 2% DMSO control, read-out: Compound Concentration (ppm) for ≥90% inhibition, Rs
[15] = concentration sufficient to ≥90% inhibition of growth, 48 hours vs 2% DMSO control, read-out: Compound Concentration (ppm) for ≥90% inhibition, Bc
[16] = concentration sufficient to ≥90% inhibition of growth, 48 hours vs 2% DMSO control, read-out: Compound Concentration (ppm) for ≥90% inhibition, Cg
[17] = concentration sufficient to ≥90% inhibition of growth, 48 hours vs 2% DMSO control, read-out: Compound Concentration (ppm) for ≥90% inhibition, Fv
[18] = concentration sufficient to ≥90% inhibition of growth, 48 hours vs 2% DMSO control, read-out: Compound Concentration (ppm) for ≥90% inhibition, Dm
[19] = concentration sufficient to ≥90% inhibition of growth, 48 hours vs 2% DMSO control, read-out: Compound Concentration (ppm) for ≥90% inhibition, Fm
[20] = concentration sufficient to ≥90% inhibition of growth, 48 hours vs 2% DMSO control, read-out: Compound Concentration (ppm) for ≥90% inhibition, St

IC90 [1, 5] [µg/mL]	IC90 (Rhizoctonia solani (Rs); [6]) [µg/mL]	IC90 (Botrtyis cinerea (Bc); [7]) [µg/mL]	IC90 [2, 8] [µg/mL]	IC90 [3, 9] [µg/mL]	IC90 (Diplodia maydis (Dm); [10]) [µg/mL]	IC90 [4, 11] [µg/mL]	IC90 (Septoria tritici (St); [12]) [µg/mL]	IC90 [1, 13] [µg/mL]	IC90 (Rhizoctonia solani (Rs); [14]) [µg/mL]	IC90 (Botrtyis cinerea (Bc); [15]) [µg/mL]	IC90 [2, 16] [µg/mL]	IC90 [3, 17] [µg/mL]	IC90 (Diplodia maydis (Dm); [18]) [µg/mL]	IC90 [4, 19] [µg/mL]	IC90 (Septoria tritici (St); [20]) [µg/mL]	Structure (SMILES)
> 50	10 (≈ 16.5 µM)	2 (≈ 3.29 µM)	2 (≈ 3.29 µM)	0.4 (≈ 0.658 µM)	2 (≈ 3.29 µM)	0.08 (≈ 0.132 µM)	> 50									CCOC(=O)c1sc2c(c1C)c(=O)n(C(C)(C)C(=O)NC(C)C)c(=O)n2C[C@H](OCCOC)c1cc(F)ccc1OC [Compound I-177]
> 50	0.4 (≈ 0.66 µM)	2 (≈ 3.3 µM)	≥ 0.4	2 (≈ 3.3 µM)	2 (≈ 3.3 µM)	0.4 (≈ 0.66 µM)	≥ 50									CCOC(=O)c1sc2c(c1C)c(=O)n(C(C)(C)C(=O)N1CCCC1)c(=O)n2C[C@H](OCCO)c1cc(F)ccc1OC [Compound I-178]
> 50	10 (≈ 16.1 µM)	2 (≈ 3.23 µM)	≥ 2	> 2	10 (≈ 16.1 µM)	0.4 (≈ 0.645 µM)	> 50									CCOC(=O)c1sc2c(c1C)c(=O)n(C(C)(C)C(=O)N1CCCC1)c(=O)n2C[C@H](OCCOC)c1cc(F)ccc1OC [Compound I-179]
> 50	10 (≈ 17.8 µM)	2 (≈ 3.57 µM)	50 (≈ 89.2 µM)	10 (≈ 17.8 µM)	> 50	0.4 (≈ 0.714 µM)	> 50									CCOC(=O)c1sc2c(c1C)c(=O)n(C(C)(C)C(N)=O)c(=O)n2C[C@H](OCCC#N)c1cc(F)ccc1OC [Compound I-180]
> 50	0.4 (≈ 0.651 µM)	2 (≈ 3.25 µM)	2 (≈ 3.25 µM)	2 (≈ 3.25 µM)	2 (≈ 3.25 µM)	0.08 (≈ 0.13 µM)	> 50									CCOC(=O)c1sc2c(c1C)c(=O)n(C(C)(C)C(=O)N1CCCC1)c(=O)n2C[C@H](OCCC#N)c1cc(F)ccc1OC [Compound I-182]
> 50	2 (≈ 3.63 µM)	10 (≈ 18.1 µM)	> 50	50 (≈ 90.6 µM)	> 50	2 (≈ 3.63 µM)	> 50									CCOC(=O)c1sc2c(c1C)c(=O)n(C(C)(C)C(N)=O)c(=O)n2C[C@H](OCCO)c1cc(F)ccc1OC [Compound I-183]
≥ 50	0.4 (≈ 0.736 µM)	2 (≈ 3.68 µM)	10 (≈ 18.4 µM)	0.4 (≈ 0.736 µM)	10 (≈ 18.4 µM)	0.4 (≈ 0.736 µM)	> 50									COc1ccc(F)cc1[C@@H](O)Cn1c(=O)n(C(C)(C)C(=O)NC(C)C)c(=O)c2c(C)c(-n3cccn3)sc21 [Compound I-187]
								> 50	10 (≈ 18 µM)	10 (≈ 18 µM)	> 50	50 (≈ 90.2 µM)	> 50	10 (≈ 18 µM)	> 50	COc1ccc(F)cc1[C@H](Cn1c(=O)n(C(C)(C)C(N)=O)c(=O)c2c(C)c(-n3cccn3)sc21)OCCC#N [Compound I-190]
> 50	10 (≈ 16.4 µM)	10 (≈ 16.4 µM)	50 (≈ 82.1 µM)	≥ 10	50 (≈ 82.1 µM)	2 (≈ 3.29 µM)	> 50									COc1ccc(F)cc1[C@H](Cn1c(=O)n(C(C)(C)C(=O)N2CCCC2)c(=O)c2c(C)c(-n3cccn3)sc21)OCCC#N [Compound I-194]
> 50	2 (≈ 3.28 µM)	2 (≈ 3.28 µM)	2 (≈ 3.28 µM)	2 (≈ 3.28 µM)	≥ 2	2 (≈ 3.28 µM)	> 50									COc1ccc(F)cc1[C@H](Cn1c(=O)n(C(C)(C)C(=O)N2CCCC2)c(=O)c2c(C)c(-n3nccn3)sc21)OCCC#N [Compound I-195]
> 50	2 (≈ 3.38 µM)	2 (≈ 3.38 µM)	10 (≈ 16.9 µM)	2 (≈ 3.38 µM)	10 (≈ 16.9 µM)	0.4 (≈ 0.676 µM)	> 50									COc1ccccc1[C@H](Cn1c(=O)n(C(C)(C)C(=O)N2CCCC2)c(=O)c2c(C)c(-n3nccn3)sc21)OCCC#N [Compound I-196]
> 50	0.4 (≈ 0.685 µM)	0.4 (≈ 0.685 µM)	10 (≈ 17.1 µM)	≥ 2	10 (≈ 17.1 µM)	0.4 (≈ 0.685 µM)	≥ 50									COc1ccc(F)cc1[C@H](Cn1c(=O)n([C@@H](C)C(=O)NC(C)C)c(=O)c2c(C)c(-n3nccn3)sc21)OCCC#N [Compound I-197]
								> 50	50 (≈ 92.3 µM)	10 (≈ 18.5 µM)	50 (≈ 92.3 µM)	10 (≈ 18.5 µM)	50 (≈ 92.3 µM)	10 (≈ 18.5 µM)	> 50	COc1ccc(F)cc1[C@H](Cn1c(=O)n([C@@H](C)C(N)=O)c(=O)c2c(C)c(-n3nccn3)sc21)OCCC#N [Compound I-199]
> 50	2 (≈ 3.69 µM)	2 (≈ 3.69 µM)	> 50	2 (≈ 3.69 µM)	> 50	2 (≈ 3.69 µM)	> 50									COc1ccc(F)cc1[C@H](Cn1c(=O)n([C@H](C)C(N)=O)c(=O)c2c(C)c(-n3nccn3)sc21)OCCC#N [Compound I-200]
> 50	0.08 (≈ 0.134 µM)	2 (≈ 3.36 µM)	10 (≈ 16.8 µM)	≥ 0.4	≥ 2	0.4 (≈ 0.672 µM)	> 50									COc1ccc(F)cc1[C@H](Cn1c(=O)n([C@@H](C)C(=O)N2CCCC2)c(=O)c2c(C)c(-n3nccn3)sc21)OCCC#N [Compound I-201]
								> 50	10 (≈ 16.4 µM)	50 (≈ 82.1 µM)	50 (≈ 82.1 µM)	50 (≈ 82.1 µM)	50 (≈ 82.1 µM)	10 (≈ 16.4 µM)	> 50	COc1ccc(F)cc1[C@H](Cn1c(=O)n(C(C)(C)C(=O)N2CCCC2)c(=O)c2c(C)c(-n3cccn3)sc21)OCCC#N [Compound I-203]
> 50	2 (≈ 3.35 µM)	2 (≈ 3.35 µM)	10 (≈ 16.7 µM)	2 (≈ 3.35 µM)	2 (≈ 3.35 µM)	0.4 (≈ 0.669 µM)	> 50									COc1ccc(F)cc1[C@H](Cn1c(=O)n([C@@H](C)C(=O)N(C)C(C)C)c(=O)c2c(C)c(-n3nccn3)sc21)OCCC#N [Compound I-204]
> 50	0.08 (≈ 0.14 µM)	2 (≈ 3.51 µM)	10 (≈ 17.6 µM)	2 (≈ 3.51 µM)	≥ 2	0.08 (≈ 0.14 µM)	> 50									CNC(=O)C(C)(C)n1c(=O)c2c(C)c(-n3nccn3)sc2n(C[C@H](OCCC#N)c2cc(F)ccc2OC)c1=O [Compound I-207]
> 50	0.08 (≈ 0.145 µM)	2 (≈ 3.63 µM)	50 (≈ 90.6 µM)	10 (≈ 18.1 µM)	≥ 10	0.08 (≈ 0.145 µM)	> 50									CNC(=O)C(C)(C)n1c(=O)c2c(C)c(-n3nccn3)sc2n(C[C@H](OCCC#N)c2ccccc2OC)c1=O [Compound I-209]
> 50	0.08 (≈ 0.144 µM)	2 (≈ 3.59 µM)	2 (≈ 3.59 µM)	2 (≈ 3.59 µM)	≥ 10	0.4 (≈ 0.719 µM)	> 50									COc1ccc(F)cc1[C@@H](O)Cn1c(=O)n(C(C)(C)C(=O)N2CCCC2)c(=O)c2c(C)c(-n3nccn3)sc21 [Compound I-214]
								> 50	0.08 (≈ 0.149 µM)	10 (≈ 18.6 µM)	50 (≈ 92.8 µM)	10 (≈ 18.6 µM)	> 50	10 (≈ 18.6 µM)	> 50	COc1ccccc1[C@@H](O)Cn1c(=O)n(C(C)(C)C(=O)N2CCCC2)c(=O)c2c(C)c(-n3nccn3)sc21 [Compound I-215]
≥ 50	2 (≈ 3.69 µM)	10 (≈ 18.4 µM)	10 (≈ 18.4 µM)	2 (≈ 3.69 µM)	50 (≈ 92.2 µM)	2 (≈ 3.69 µM)	> 50									COc1ccc(F)cc1[C@@H](O)Cn1c(=O)n([C@@H](C)C(=O)N2CCCC2)c(=O)c2c(C)c(-n3nccn3)sc21 [Compound I-218]
> 50	> 50	2 (≈ 3.4 µM)	10 (≈ 17 µM)	≥ 10	> 10	0.4 (≈ 0.68 µM)	> 50									CCOC(=O)c1sc2c(c1C)c(=O)n([C@@H](C)C(=O)NC(C)C)c(=O)n2C[C@H](OCCC#N)c1cc(F)ccc1OC [Compound I-219]
